From patent publication US20040006236A1, “Diaminopropionic acid derivatives” (priority 1999, published 2004)

Tests used:
[1] = target: T1, LFA-1 binding to immobilized ICAM-1 (Homo sapiens, UniProt P05107+P20701); test: LFA-1/ICAM-1 protein-protein assay (solid-phase ELISA); details: read-out: LFA-1/ICAM-1 Protein-Protein Assay IC50
T1 construct: made in house; host or cells: transfected 293 cells (LFA-1)
Outline: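 Human 5dICAM-Ig (ICAM-1 extracellular domain–IgG Fc) coated on plates; membrane-bound LFA-1 from transfected 293 cells (280 ng/mL) added with compound in Mn2+-containing HEPES buffer pH 7.2, 2 h at 37° C. Bound LFA-1 detected via anti-β2 antibody and HRP/TMB at 450 nm; IC50s determined.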

[2] = test system: T lymphocyte proliferation (C57BI/6 spleen cells with irradiated BALB/c spleen cells); test: Mixed lymphocyte reaction (MLR), one-way; type: cell-based, mice; details: Mus musculus, T-lymphocyte; read-out: MLR IC50
Excerpt: Admixture of murine spleen cells from two different inbred strains of mice induces proliferation of T lymphocytes. The magnitude of T cell proliferation depends on the extent of disparity in the major histocompatibility antigens between the two strains. Splenic T lymphocytes from both strains proliferate due to alloantigen recognition, a process for which the interaction of ICAM-1 on antigen-presenting cells with LFA-1 on lymphocytes is necessary. The ability of antagonists to inhibit T lymphocyte proliferation following recognition of alloantigens was assessed in a one-way MLR, where cells from one strain were irradiated to permit measurement of the proliferative response of cells from the other strain. Spleen cells were washed three times in tissue culture medium (TCM; see below). […] One hundred microliters of serial dilutions of antagonists or TCM were added to the spleen cell mixture. The total volume in each well was 200 μL. TCM was RPMI1640 containing 10% heat-inactivated fetal bovine serum, […] L-glutamine, 100 Units/ml each of penicillin and streptomycin and 5×10^−5 M 2-mercaptoethanol. Dilutions of antagonists were prepared in TCM. Plates were incubated in 5% CO2 for 3 days. On the third day, 0.5 μCi of tritiated thymidine (10 μCi/mL) was added to all the wells. Cells were harvested 6 h later on a 96-well plate harvester and the amount of tritiated thymidine incorporated was assessed in a liquid scintillation counter.

[3] = test system: Mac-1 and LFA-1-mediated neutrophil binding to immobilized ICAM-1; test: Neutrophil (Mac-1 and LFA-1)/ICAM-1 cell-based screening assay; details: human neutrophils
Experimental: Both Mac-1 and LFA-1 are expressed on the cell surface of neutrophils. The ability of antagonists to inhibit Mac-1 and LFA-1-mediated neutrophil binding to immobilized ICAM-1 was quantitated by a cell based assay. Typically, fusion protein consisting of the entire extracellular domain of human ICAM-1 and the Fc domain of human IgG (5dICAM-Ig) was coated onto 96 well microtiter plates (1 μg in 100 μL TBS) overnight at 4° C. The plates were then blocked with 150 μL of 10% PVP in TBS for 1 h at 37° C. Plates were washed 3 times (150 μL each) with TBS. Human neutrophils were purified from whole blood from healthy volunteers using LSM (ICN). Cells (8×10^6/mL) were fluorescently labeled with 6-carboxyfluorescein (100 μg/mL) for 40 min in IMDM/1 mM MgCl2/1.2 mM CaCl2 as described in Example 287. Cells (8×10^6/mL) were stimulated with f-Met-Leu-Phe (10 μM) for 5 min at room temperature just prior to being used in the assay, and diluted to 2×10^6 cells/mL with RPMI/0.05% BSA/0.2 mM MnCl2. Stock solutions (10 mM) of test compounds were diluted to 2.5 mM with DMSO. A series of 1:4 dilutions in DMSO were performed to achieve a concentration range of 38.2 nM-2.5 mM. Each sample was further diluted 50-fold with RPMI/0.05% BSA/0.2 mM MnCl2. Equal volumes of labeled cells were then added to assay tubes containing diluted compound. Final concentrations of compound tested in the assay ranged from 0.38 nM-25 μM with a cell concentration of 1×10^6 per mL. Cells were incubated for 10 min at 37° C. with gentle shaking, then dispensed (100 μL per well) onto ICAM-1 coated plates and incubated for 30 min at 37° C./5% CO2. Unbound cells were washed and plates were read on a Cytofluor™ 2300 (Millipore) as described in Example 384.

T1 sequence (P20701 26-1170): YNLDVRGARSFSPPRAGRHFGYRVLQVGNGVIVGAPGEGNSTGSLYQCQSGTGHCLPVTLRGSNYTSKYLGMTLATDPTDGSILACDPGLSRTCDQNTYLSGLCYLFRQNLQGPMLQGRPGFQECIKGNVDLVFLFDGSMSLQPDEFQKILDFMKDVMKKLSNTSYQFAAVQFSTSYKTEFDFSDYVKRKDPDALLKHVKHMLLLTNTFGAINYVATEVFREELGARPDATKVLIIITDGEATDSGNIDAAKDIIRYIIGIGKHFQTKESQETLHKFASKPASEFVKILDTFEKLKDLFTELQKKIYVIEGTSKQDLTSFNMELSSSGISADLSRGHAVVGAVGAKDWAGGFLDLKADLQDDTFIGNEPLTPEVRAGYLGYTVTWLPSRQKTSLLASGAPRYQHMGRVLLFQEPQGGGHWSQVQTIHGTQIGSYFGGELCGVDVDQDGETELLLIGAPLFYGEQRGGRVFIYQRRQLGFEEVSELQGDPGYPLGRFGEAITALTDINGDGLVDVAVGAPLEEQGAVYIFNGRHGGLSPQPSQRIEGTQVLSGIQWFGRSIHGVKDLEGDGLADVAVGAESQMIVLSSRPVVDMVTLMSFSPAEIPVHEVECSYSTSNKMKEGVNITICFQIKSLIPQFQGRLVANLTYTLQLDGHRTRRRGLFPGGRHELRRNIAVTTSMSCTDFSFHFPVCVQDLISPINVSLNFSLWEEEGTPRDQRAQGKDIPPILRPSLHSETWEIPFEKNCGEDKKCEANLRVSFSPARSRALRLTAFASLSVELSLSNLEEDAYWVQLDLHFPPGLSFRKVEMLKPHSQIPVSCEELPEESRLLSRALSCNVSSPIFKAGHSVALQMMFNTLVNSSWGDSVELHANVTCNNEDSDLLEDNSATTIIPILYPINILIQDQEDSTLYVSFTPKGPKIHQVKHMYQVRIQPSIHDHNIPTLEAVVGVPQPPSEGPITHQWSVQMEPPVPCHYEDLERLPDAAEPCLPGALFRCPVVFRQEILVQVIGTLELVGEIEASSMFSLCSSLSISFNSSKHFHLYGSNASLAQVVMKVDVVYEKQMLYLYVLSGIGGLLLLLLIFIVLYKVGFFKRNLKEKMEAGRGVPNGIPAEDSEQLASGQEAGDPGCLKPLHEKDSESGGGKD
T1 sequence (P05107 23-769): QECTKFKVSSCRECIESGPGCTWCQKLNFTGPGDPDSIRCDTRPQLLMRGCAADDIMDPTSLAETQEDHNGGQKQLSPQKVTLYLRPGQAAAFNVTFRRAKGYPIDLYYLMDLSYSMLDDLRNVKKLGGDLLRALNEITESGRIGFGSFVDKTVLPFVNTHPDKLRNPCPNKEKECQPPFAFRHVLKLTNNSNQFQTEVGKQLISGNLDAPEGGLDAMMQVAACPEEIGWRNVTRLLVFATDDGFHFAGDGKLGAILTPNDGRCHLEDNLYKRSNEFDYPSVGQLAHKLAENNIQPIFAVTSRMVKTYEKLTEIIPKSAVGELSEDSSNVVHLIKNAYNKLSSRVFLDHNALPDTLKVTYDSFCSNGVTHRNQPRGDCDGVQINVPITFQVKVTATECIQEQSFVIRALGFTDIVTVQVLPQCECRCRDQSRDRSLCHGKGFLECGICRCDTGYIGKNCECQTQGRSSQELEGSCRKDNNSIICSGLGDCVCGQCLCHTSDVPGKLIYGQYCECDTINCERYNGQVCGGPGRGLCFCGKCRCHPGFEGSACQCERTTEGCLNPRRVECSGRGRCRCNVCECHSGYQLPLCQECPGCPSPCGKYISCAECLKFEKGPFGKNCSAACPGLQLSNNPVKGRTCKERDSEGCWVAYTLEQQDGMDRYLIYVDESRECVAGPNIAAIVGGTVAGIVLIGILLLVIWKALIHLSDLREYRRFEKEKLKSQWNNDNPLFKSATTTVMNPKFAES

Cc1cc(C(=O)NCc2cccc(O)c2)cc(Cl)c1C(=O)N[C@@H](CNC(=O)c1cc(O)cc(O)c1)C(=O)O [Example 341, N-[2-chloro-4-[[[(3-hydroxyphenyl)methyl]amino]carbonyl]-6-methylbenzoyl]-3-(3,5-dihydroxybenzoylamino)-L-alanine] was tested, and the IC50 [1] was 0.3 nM, the IC50 [2] was 3 nM and the IC50 [3] was 0.3 nM.
